In patent US11213509B2, “Compositions and methods for treating traumatic brain injury” (Ischemix, LLC, priority 2017, dated 2022):

Tests used:
[1] = Body weight change, fluid percussion model of diffused TBI; assay type: in vivo, rat; details: 7.5, 15, 30, 45 mg/kg i.v. vs vehicle; 28 days
Procedure: On the day before TBI surgery (Day −1), rats were anesthetized with 3% isoflurane in a mixture of nitrous oxide and oxygen (2:1) for induction of anesthesia and then maintained at 1-3% isoflurane in a mixture of nitrous oxide and oxygen (2:1). The surgical site skin was shaved, and the rat was then placed in a stereotaxic frame. Buprenorphine SR, s.c, (0.9-1.2 mg/kg Zoopharm: Lot: BSR1-142111) and Cefazolin, i.p., (40-50 mg/kg; Hospira: Lot: 101D032) was given at this time. The skull was exposed through a midline incision. A parasagittal craniotomy (5 mm) using a trephine drill was performed at 1 mm posterior to bregma and 1 mm lateral to the midline (outer circumference). […]
On the day of TBI surgery (Day 0), rats were re-anesthetized with 3% isoflurane in a mixture of nitrous oxide and oxygen (2:1), intubated, connected to a respirator and ventilated with 1-2% isoflurane in a mixture of nitrous oxide and oxygen (2:1). […] The amplitude of the resulting pressure pulse was measured in atmospheres by a pressure transducer. […]
Dosing solutions were prepared in a blinded fashion with H, I, M, O and Z labels ready to use. […]
All data were expressed as mean S.E.M. Behavioral data and weight were analyzed by repeated measures of ANOVA and/or ANCOVA. […]

[2] = system: mitochondrial bioenergetics; assay: Mitochondrial respiration (respiratory control ratio) 24 hours post-CCI, focal TBI model in piglets; assay type: in vivo
Procedure: (§1) Study Design: A blinded, placebo controlled proof of concept trial of CMX-2043 was conducted in four-week-old piglets (8-10 kg). […] Sixteen piglets (n=16) were designated into three cohorts: 1) Controlled cortical impact (CCI) at the rostral gyrus treated with a bolus of CMX-2043 (n=5), 2) CCI injured animals treated with placebo (n=5) and 3) sham animals (n=6). CMX-2043 treated animals received an intravenous loading bolus of CMX-2043 (13.4 mg/kg) 1 hour post-TBI and a 4.5 mg/kg bolus at 13 hours post-TBI. Subjects were intubated, ventilated and anesthesia maintained on isoflurane (1.0%). Buprenorphine (0.02 mg/kg IM) was administered for analgesia immediately following intubation. Monitors recorded oxygen saturation, heart rate, respiration rate, rectal temperature, and end tidal CO2. […] All piglets were sacrificed between 24-25 hours post-TBI.
Mitochondrial Respiration and ROS Production: Twenty four hours post-CCI the ipsilateral penumbra and mirrored contralateral cortex were harvested. The rate of oxygen consumption was recorded via high-resolution Oroboros Oxygraph-2k™ with a specific Substrate-Uncouple-Inhibitor-Titration Protocol (SUIT). […] Maximal reserve capacity of the electron transfer system (ETSCI+CII) was measured by titrating the protonophore carbonyl cyanide p-(trifluoro-methoxy) phenylhydrazone (FCCP). […]

[3] = system: protein carboxylation; assay: Protein carboxylation by ELISA, focal TBI model in piglets; assay type: in vivo; details: cortical penumbra, ipsilateral; vs placebo, p<0.01
Procedure: as §1
Samples from the same ipsilateral region that were analyzed for mtROS were analyzed for oxidative damage by measuring protein carboxylation (VWR Int'l), and compared to placebo and shams.

For `CC(NC(=O)C(CCC(=O)O)NC(=O)CCCCC1CCSS1)C(=O)O` [CMX-2043, N—(R)-lipoyl-glutamylalanine], the “Body weight over time” value [1] was “no significant differences”, the “Respiratory control ratio (RCR; OXPHOS CI+CII/LEAK CI+CII)” value ([2]; contralateral cortex, P=0.09 vs placebo) was 11.05±1.71 and the “Respiratory control ratio (RCR; OXPHOS CI+CII/LEAK CI+CII)” value ([2]; ipsilateral cortex, i.v. 13.4 mg/kg at 1 hour and 4.5 mg/kg at 13 hours post-TBI, p<0.05 vs placebo) was 11.61±2.28. For the same compound, the “Protein carboxylation (ELISA)” value [3] was “significant reduction in protein carboxylation”.
